Reference: ChEMBL document CHEMBL4507291 (2021)

Columns and labels:
[1] = molecular target: Tyrosine-protein kinase Fgr (Homo sapiens) (UniProt P09769)
[2] = system: Tyrosine-protein kinase ABL1 (Homo sapiens), P00519 [H396P]
[3] = molecular target: T1, Ephrin type-B receptor 4 (Homo sapiens) (UniProt P54760)
T1 sequence (whole entry): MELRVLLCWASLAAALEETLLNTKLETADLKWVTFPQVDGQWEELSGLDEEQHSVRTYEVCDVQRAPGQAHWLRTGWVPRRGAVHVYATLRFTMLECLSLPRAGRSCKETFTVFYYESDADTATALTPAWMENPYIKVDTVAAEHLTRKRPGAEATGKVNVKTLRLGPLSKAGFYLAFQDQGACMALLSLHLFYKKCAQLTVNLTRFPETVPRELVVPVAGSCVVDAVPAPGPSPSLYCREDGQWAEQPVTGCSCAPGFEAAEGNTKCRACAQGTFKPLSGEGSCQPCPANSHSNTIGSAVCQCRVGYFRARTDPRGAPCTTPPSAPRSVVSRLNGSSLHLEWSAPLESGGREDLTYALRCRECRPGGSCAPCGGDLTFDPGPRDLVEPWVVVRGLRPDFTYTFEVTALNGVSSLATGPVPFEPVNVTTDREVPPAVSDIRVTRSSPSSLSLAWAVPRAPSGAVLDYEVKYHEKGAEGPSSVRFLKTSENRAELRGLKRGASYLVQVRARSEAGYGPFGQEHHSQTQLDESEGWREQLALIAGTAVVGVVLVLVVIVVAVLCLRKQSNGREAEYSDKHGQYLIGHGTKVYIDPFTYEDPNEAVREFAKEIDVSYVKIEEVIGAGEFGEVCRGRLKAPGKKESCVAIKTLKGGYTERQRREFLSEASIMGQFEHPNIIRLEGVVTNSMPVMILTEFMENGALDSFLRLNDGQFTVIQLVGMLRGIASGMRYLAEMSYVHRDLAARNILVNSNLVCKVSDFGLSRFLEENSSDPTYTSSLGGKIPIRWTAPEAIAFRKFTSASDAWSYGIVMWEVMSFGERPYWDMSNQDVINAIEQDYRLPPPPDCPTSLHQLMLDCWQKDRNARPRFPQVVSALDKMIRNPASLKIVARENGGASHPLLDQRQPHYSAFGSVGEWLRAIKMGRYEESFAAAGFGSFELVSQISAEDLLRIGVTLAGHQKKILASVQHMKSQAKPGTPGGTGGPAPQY

[4] = molecular target: Calcium/calmodulin-dependent protein kinase type 1 (Homo sapiens) (UniProt Q14012)
Sequence of Calcium/calmodulin-dependent protein kinase type 1 (Homo sapiens) (Q14012 whole entry, looked up): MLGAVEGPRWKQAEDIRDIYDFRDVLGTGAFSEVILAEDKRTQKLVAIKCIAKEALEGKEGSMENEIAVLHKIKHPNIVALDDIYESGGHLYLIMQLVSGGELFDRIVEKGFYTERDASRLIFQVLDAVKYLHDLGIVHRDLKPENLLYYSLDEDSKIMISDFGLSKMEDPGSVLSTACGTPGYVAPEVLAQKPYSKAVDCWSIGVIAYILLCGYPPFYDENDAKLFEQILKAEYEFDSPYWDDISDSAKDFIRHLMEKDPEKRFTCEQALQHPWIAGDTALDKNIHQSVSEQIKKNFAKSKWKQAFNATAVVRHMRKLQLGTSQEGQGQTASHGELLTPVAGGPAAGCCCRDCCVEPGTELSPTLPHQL

[5] = molecular target: Cyclin-dependent kinase 8 (Homo sapiens) (UniProt P49336)
Sequence of Cyclin-dependent kinase 8 (Homo sapiens) (P49336 whole entry): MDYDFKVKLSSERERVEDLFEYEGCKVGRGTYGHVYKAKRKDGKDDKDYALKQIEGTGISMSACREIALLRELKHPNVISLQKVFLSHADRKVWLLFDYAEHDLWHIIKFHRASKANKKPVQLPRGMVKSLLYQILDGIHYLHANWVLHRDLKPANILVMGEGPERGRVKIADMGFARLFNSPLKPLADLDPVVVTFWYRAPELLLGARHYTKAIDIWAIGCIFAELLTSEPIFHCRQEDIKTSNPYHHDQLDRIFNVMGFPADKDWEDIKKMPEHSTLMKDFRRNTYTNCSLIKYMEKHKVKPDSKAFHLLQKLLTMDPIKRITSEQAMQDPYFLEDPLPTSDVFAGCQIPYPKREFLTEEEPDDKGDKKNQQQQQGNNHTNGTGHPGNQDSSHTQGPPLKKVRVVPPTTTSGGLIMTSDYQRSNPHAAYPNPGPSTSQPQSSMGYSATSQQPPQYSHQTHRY

[6] = molecular target: Homeodomain-interacting protein kinase 3 (Homo sapiens) (UniProt Q9H422)
Sequence of Homeodomain-interacting protein kinase 3 (Homo sapiens) (Q9H422 whole entry, looked up): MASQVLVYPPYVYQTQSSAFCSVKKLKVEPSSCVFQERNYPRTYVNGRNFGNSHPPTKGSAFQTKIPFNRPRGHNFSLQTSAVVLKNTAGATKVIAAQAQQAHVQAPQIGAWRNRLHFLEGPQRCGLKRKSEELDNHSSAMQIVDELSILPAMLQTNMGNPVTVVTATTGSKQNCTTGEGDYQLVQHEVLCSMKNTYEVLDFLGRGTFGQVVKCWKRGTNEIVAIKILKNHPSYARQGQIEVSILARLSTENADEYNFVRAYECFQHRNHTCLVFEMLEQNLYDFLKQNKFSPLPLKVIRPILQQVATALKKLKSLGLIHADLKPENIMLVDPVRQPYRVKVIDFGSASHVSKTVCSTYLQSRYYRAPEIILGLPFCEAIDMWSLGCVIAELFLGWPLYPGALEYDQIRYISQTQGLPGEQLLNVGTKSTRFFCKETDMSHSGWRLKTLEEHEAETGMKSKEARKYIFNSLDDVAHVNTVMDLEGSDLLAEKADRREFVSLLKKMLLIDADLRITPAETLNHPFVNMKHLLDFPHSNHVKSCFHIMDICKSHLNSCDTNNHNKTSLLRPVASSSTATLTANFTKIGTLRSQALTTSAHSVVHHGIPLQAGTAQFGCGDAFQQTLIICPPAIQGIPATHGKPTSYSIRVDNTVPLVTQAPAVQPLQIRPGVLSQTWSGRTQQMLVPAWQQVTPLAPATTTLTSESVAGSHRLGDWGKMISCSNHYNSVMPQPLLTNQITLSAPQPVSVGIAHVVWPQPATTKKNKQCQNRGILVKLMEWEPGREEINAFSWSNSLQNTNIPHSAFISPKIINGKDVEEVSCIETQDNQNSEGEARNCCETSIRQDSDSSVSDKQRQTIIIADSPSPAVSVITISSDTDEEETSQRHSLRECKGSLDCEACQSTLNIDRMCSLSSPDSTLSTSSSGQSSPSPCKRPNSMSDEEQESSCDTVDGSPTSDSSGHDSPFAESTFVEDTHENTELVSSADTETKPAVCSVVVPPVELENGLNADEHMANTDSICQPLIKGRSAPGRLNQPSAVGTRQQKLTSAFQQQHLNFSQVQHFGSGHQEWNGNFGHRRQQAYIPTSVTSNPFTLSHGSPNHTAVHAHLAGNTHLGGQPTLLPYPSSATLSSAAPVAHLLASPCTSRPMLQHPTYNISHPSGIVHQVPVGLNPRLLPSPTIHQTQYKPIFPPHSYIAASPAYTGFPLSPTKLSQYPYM

[7] = molecular target: Phosphatidylinositol 4-kinase beta (Homo sapiens) (UniProt Q9UBF8)
[8] = molecular target: Sigma intracellular receptor 2 (Homo sapiens, UniProt Q5BJF2); conditions: Compound concentration 10.0 uM
[9] = molecular target: Tyrosine-protein kinase Fer (Homo sapiens) (UniProt P16591)
Sequence of Tyrosine-protein kinase Fer (Homo sapiens) (P16591 whole entry, looked up): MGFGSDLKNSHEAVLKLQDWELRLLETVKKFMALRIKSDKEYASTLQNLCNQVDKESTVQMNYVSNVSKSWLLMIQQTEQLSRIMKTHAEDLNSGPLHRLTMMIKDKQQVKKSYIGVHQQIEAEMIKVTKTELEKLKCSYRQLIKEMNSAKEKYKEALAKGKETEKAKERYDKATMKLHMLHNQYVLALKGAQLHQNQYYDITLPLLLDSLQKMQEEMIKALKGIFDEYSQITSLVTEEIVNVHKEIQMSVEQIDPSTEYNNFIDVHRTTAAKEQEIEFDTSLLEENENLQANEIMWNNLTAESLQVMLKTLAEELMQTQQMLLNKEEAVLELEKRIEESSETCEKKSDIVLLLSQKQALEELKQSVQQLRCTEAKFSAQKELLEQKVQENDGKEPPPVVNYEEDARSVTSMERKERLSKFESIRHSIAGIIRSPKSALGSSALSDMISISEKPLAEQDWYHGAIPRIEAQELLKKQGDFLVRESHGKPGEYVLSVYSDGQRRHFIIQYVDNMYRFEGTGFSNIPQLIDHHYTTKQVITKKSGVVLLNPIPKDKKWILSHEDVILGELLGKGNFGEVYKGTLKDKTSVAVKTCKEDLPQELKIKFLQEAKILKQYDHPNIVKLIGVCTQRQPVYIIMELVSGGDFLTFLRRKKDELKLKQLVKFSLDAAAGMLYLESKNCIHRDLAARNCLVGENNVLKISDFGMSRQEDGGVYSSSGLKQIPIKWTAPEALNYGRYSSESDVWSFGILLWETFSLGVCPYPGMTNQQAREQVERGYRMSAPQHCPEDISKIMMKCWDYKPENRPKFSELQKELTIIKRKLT

[10] = system: Tyrosine-protein kinase ABL1 (Homo sapiens), P00519 [F317I]
[11] = system: ALK tyrosine kinase receptor (Homo sapiens), Q9UM73 [C1156Y]
Sequence of ALK tyrosine kinase receptor (Homo sapiens), Q9UM73 [C1156Y] (Q9UM73 whole entry C1156Y, looked up): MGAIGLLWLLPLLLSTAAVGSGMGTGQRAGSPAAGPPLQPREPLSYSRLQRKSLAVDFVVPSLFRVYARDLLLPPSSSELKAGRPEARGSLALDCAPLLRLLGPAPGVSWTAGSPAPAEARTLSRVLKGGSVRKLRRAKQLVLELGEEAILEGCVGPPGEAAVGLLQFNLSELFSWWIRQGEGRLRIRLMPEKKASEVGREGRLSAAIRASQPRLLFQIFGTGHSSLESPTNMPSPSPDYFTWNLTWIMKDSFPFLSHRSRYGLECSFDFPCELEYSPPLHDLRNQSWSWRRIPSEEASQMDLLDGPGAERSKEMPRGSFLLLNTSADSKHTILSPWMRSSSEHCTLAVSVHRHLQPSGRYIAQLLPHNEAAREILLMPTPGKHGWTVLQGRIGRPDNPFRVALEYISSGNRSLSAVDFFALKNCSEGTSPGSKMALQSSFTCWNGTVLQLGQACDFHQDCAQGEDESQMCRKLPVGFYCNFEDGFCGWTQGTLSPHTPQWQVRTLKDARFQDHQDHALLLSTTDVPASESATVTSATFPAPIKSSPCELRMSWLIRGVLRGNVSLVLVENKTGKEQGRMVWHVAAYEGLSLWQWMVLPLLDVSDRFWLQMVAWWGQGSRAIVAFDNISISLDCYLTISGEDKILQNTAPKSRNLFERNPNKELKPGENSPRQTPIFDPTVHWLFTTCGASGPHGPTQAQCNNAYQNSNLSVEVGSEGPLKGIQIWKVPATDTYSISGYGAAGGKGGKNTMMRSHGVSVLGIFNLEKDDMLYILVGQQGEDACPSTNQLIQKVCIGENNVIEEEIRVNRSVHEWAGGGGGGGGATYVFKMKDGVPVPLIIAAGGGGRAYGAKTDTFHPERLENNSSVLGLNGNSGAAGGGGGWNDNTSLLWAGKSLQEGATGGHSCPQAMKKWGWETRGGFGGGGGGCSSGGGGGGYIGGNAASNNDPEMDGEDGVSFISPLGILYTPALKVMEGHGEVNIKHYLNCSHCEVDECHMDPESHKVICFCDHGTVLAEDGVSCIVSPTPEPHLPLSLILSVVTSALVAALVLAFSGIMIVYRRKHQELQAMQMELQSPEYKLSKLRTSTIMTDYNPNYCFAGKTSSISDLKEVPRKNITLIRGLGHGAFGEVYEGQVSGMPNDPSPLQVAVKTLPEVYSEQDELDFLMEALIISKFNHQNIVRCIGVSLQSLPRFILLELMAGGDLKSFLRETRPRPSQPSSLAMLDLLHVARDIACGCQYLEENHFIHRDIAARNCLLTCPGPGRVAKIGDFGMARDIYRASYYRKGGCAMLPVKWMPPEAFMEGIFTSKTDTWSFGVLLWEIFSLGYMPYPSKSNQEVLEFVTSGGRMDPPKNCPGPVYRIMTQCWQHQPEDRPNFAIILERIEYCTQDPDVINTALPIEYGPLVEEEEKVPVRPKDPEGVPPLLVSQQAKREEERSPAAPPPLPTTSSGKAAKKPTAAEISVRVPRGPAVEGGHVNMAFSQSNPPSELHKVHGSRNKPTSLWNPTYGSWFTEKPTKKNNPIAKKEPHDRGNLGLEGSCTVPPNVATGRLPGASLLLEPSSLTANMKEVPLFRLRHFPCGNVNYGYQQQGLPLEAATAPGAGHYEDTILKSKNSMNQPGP

[12] = molecular target: Serine/threonine-protein kinase TNNI3K (Homo sapiens) (UniProt Q59H18)
[13] = molecular target: T2, Ephrin type-B receptor 2 (Homo sapiens) (UniProt P29323)
T2 sequence (whole entry): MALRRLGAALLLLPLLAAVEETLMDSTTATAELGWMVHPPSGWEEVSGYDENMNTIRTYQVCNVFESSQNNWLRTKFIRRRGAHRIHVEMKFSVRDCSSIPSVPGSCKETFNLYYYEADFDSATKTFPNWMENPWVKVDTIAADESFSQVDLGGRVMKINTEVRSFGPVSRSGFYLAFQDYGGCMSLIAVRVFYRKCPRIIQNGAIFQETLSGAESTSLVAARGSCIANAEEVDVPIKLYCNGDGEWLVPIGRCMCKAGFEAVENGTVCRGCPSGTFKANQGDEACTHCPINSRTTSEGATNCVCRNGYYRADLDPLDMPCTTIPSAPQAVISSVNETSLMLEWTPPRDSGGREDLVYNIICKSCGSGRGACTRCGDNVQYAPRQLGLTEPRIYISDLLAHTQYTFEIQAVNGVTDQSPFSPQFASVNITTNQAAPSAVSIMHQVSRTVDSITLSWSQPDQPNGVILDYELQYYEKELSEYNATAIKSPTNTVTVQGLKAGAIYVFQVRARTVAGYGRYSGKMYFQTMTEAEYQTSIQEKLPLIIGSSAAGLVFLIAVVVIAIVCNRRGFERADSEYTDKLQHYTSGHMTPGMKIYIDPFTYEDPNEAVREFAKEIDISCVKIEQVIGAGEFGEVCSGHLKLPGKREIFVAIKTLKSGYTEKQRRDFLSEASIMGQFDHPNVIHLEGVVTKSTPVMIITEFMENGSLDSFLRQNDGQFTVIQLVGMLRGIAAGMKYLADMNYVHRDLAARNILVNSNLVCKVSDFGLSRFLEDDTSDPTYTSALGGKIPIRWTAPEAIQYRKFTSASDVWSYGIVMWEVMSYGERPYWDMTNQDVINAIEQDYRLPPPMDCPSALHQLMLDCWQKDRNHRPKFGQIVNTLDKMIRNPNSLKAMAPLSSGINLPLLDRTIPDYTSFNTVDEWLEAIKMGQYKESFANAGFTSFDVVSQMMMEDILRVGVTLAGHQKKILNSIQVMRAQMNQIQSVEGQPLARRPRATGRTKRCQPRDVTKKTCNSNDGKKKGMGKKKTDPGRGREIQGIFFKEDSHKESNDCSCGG

[14] = Compound concentration 1000.0 nM
[15] = Compound concentration 100.0 nM

Sequence of Tyrosine-protein kinase Fgr (Homo sapiens) (P09769 2-529 limits assumed): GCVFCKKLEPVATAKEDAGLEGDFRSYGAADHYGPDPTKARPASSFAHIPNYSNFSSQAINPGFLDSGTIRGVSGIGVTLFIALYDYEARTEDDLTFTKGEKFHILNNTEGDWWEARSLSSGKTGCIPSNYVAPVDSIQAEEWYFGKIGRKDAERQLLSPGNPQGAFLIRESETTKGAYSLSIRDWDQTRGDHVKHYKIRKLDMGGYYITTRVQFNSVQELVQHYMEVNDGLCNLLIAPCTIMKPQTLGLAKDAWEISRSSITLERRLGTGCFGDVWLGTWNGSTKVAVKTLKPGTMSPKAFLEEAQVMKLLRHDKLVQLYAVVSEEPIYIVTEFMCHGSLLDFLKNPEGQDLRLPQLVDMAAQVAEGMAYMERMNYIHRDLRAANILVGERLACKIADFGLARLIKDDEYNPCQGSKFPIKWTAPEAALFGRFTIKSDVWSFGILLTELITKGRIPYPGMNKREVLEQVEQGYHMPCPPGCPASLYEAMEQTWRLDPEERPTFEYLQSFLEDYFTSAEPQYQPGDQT

`C[C@@H]1CN(c2cc(-c3nn(C)c4ccc(OC5(C)CC5)cc34)ncn2)C[C@H](C)O1` [MLi-2-NC] gave a residual activity [1, 14] of 90%, a residual activity [2, 14] of 75% and a residual activity [3, 14] of 100%. For the same compound, the residual activity [4, 14] was 100%, the residual activity [5, 14] was 100% and the residual activity [6, 14] was 91%. For the same compound, the residual activity [7, 14] was 89%, the inhibition [8] was 90.4% and the residual activity [9, 14] was 100%. For the same compound, the residual activity [10, 14] was 75%, the residual activity [11, 14] was 82% and the residual activity [12, 14] was 71%. The residual activity [13, 14] was 95%.
For `C[C@@H]1CN(c2cc(-c3n[nH]c4ccc(OC5(C)CC5)cc34)ncn2)C[C@H](C)O1` [MLi-2], the residual activity [1, 15] was 89%, the residual activity [2, 15] was 96% and the residual activity [3, 15] was 79%. For the same compound, the residual activity [4, 15] was 100%, the residual activity [5, 15] was 63% and the residual activity [6, 15] was 73%. For the same compound, the residual activity [7, 15] was 100%, the inhibition [8] was 50.4% and the residual activity [9, 15] was 86%. It also gave a residual activity [10, 15] of 80%, a residual activity [11, 15] of 89% and a residual activity [12, 15] of 78%. For the same compound, the residual activity [13, 15] was 90%.
